Experiments:
Assay type in all cases: protein-complex assay
[1] = target: T1, Integrin alpha-4/beta-1 (Homo sapiens, UniProt P05556+P13612); test: Inhibition of alpha4-beta1 integrin connecting segment 1 (CS1) splice variant binding interaction 100 uM
[2] = target: T1, Integrin alpha-4/beta-1; test: Inhibition of alpha4-beta1 integrin connecting segment 1 (CS1) splice variant binding interaction
Target sequence in this assay (P05556 21-798 limits assumed, change not shown): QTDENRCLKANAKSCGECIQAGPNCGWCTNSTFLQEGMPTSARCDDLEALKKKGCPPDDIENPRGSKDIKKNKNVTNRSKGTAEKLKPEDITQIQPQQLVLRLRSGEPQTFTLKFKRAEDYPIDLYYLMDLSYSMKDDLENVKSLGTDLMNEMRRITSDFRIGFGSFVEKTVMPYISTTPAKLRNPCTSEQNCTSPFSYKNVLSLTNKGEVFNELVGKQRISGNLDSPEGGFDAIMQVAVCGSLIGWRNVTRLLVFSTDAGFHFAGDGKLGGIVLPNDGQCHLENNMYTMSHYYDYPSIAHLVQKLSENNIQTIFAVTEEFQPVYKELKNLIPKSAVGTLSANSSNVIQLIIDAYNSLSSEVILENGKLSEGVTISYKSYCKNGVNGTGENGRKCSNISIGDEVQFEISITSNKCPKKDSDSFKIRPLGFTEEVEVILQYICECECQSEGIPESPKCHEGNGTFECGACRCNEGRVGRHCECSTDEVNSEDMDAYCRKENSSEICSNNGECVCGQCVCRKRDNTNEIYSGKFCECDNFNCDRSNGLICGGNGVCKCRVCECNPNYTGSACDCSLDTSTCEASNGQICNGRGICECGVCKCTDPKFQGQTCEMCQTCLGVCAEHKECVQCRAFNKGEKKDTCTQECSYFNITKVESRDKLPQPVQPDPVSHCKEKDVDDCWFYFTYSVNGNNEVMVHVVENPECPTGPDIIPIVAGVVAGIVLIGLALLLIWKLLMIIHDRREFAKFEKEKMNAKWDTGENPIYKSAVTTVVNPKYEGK
Target sequence in this assay (P13612 34-1032 limits assumed, change not shown): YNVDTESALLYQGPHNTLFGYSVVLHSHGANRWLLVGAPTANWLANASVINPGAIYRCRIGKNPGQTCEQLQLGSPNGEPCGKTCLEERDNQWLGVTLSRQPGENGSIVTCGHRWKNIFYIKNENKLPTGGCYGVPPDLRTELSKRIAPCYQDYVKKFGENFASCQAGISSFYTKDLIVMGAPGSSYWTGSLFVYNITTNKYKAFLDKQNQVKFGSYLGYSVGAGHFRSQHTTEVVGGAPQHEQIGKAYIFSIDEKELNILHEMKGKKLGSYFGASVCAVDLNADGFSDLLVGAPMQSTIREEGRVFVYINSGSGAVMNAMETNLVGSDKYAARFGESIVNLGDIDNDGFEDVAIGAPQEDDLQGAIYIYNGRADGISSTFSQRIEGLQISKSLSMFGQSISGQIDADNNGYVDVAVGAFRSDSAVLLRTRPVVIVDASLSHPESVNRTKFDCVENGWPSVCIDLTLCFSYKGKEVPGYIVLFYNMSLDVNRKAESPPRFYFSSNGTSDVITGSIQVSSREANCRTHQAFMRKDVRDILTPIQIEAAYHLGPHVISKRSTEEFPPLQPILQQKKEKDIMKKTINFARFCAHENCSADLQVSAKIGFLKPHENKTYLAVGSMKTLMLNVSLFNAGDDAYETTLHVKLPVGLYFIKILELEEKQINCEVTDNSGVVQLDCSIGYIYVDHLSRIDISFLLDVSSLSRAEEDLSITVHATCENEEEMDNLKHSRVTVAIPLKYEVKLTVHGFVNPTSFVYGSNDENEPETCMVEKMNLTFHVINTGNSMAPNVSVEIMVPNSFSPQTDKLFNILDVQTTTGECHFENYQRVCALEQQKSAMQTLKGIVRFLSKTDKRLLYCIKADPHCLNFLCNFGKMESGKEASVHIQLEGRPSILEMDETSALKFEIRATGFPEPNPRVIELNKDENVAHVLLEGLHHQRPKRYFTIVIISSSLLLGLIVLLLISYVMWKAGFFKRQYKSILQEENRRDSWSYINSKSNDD

[3] = target: T1, Integrin alpha-4/beta-1; test: Inhibition of alpha4-beta1 integrin connecting segment 1 (CS1) splice variant binding interaction at 100 uM

O=C(O)CCN1CCS[C@@H](CC(=O)O)C(=O)N[C@@H](Cc2ccc(O)cc2)C1=O
inhibition [1]: 100% | IC50 [2]: 8 µM

CCCCN1CCS[C@@H](CC(=O)O)C(=O)N[C@@H](Cc2ccccc2)C1=O
IC50 [2]: > 100 µM | inhibition [3]: 41%

CC(C)CCN1CCS[C@@H](CC(=O)O)C(=O)N[C@@H](Cc2ccccc2)C1=O
IC50 [2]: > 100 µM | inhibition [3]: 0%

O=C(O)CCN1CCS[C@H](CC(=O)O)C(=O)N[C@@H](Cc2ccc(O)cc2)C1=O
IC50 [2]: 5 µM | inhibition [3]: 100%
